Assay results from ChEMBL document CHEMBL1157539, “Thousands of chemical starting points for antimalarial lead identification” (Nature, 2010).

System: Plasmodium falciparum
Assay: GSK_TCMDC: Inhibition of Plasmodium falciparum 3D7 in whole erythrocytes, using parasite LDH activity as an index of growth.
Type: functional, organism-based
Conditions: Plasmodium falciparum, 3D7

Row | SMILES | XC50 [µM]
1 | COc1ccc2nccc([C@@H](O)CN3CCC(NC(=O)c4ccc5nc(-n6cccc6)sc5c4)CC3)c2c1 | 1
2 | COCCNC(=O)c1ccc(OC2CCN(Cc3ccc(F)c(F)c3)CC2)c(Cl)c1 | 1.49
3 | O=C(Nc1ccc(CCNC2=NCCN2)cc1)Nc1ccc(CCNC2=NCCN2)cc1 | 0.789
4 | O=c1nc(C=Cc2ccc(Br)cc2)oc2ccccc12 | 1.05
5 | Cc1cc(NC(=O)Nc2ccc3sccc3c2)c2ccccc2n1 | 0.53
6 | CCn1c(-c2nonc2N)nc2c(-c3cccc(NC(=O)Nc4ccc(C#N)cc4)c3)ncc(OCCCN)c21 | 1.51
7 | CC1CN(Cc2cccc(F)c2)CCN1c1ccc(NC(=O)c2cccs2)cc1 (stereo not given) | 0.448
8 | Cc1cc(N(C)C2CCN(C)CC2)nc(Nc2ccc(Br)cc2)n1 | 0.48
9 | CCOc1cc(C(=O)Nc2cccnc2)cc(Br)c1OCCC(C)C | 1.08
10 | Cc1cc(CNC(=O)[C@H](CC2CCCCC2)Nc2ccc(C#N)c3ccccc23)c(C(F)(F)F)o1 | 1.18
11 | OCCCCCCNc1nc(NCc2ccccc2-c2ccc(C(F)(F)F)cc2)nc(N2CCNCC2)n1 | 1.44
12 | Cc1ccc2[nH]c(NC#N)nc2c1 | 1.15
13 | O=[N+]([O-])c1ccc(CNCCCCCCNCc2ccc([N+](=O)[O-])c3ccccc23)c2ccccc12 | 0.787
14 | CC(Cc1ccc(OCc2ccccc2)cc1)NCC(O)c1cccc(Cl)c1 (stereo not given) | 0.547
15 | COc1ccc(-c2nc(NC(=O)Cc3ccc(OC)c(OC)c3)sc2C)cc1 | 1.16
16 | CCN(CCCN1CCCCC1)c1cc(C)nc(Nc2ccc(C)c(F)c2)n1 | 0.273
17 | CCNc1cc(C(=O)N[C@@H](Cc2ccccc2)[C@H](O)CN[C@H](C)C(C)(C)C)cc(N2CCCCS2(=O)=O)c1 | 0.82
18 | Nc1nc(N)c2cc(Cc3ccccc3Cl)cnc2n1 | 0.106
19 | CCOc1cc(C(=O)Nc2ccccc2N2CCN(S(C)(=O)=O)CC2)cc(OCC)c1OCC | 0.653
20 | CCCCOc1ccc(-c2nc3ccccc3[nH]2)cc1 | 0.865
21 | COc1ccc2ncc(F)c([C@H](O)CN3CCC(NCc4cc5c(cn4)OCCO5)CC3)c2c1 | 0.292
22 | COc1ccc(C=CC(=O)N2CCC(CN3CCC(c4c[nH]c5ccccc45)CC3)CC2)cc1OC | 1.07
23 | Cc1cccc(N2CCN(C3CCC(NC(=O)c4cc5ccccc5[nH]4)CC3)CC2)c1C (stereo not given) | 0.609
24 | Fc1ccc2[nH]c(-c3ccc(-c4ccc(CN5CCN(CCN6CCOCC6)CC5)cc4)cc3)nc2c1 | 0.183
25 | Cc1cnccc1/C=C/c1cccc(OCCN2CCc3ccc(S(C)(=O)=O)cc3CC2)c1 | 0.267

Row | SMILES | XC50 [µM]
26 | CC(=O)c1cccc(NC(=O)NC2CCN(c3ccnc(Nc4ccc(F)cc4)n3)C2)c1 (stereo not given) | 0.65
27 | Cn1nc(-c2ccc(NC(=O)Nc3cc(C(F)(F)F)cc(C(F)(F)F)c3)c(F)c2)c2cnc(NCCN3CCOCC3)nc21 | 0.801
28 | CC1(C)NC(N)=NC(=N)N1OCCOc1ccc(Cc2ccccc2)cc1 | 0.044
29 | CCC1=C(CC2NCCc3cc(OC)c(OC)cc32)CC2c3cc(OC)c(OC)cc3CCN2C1 (stereo not given) [DIHYDROEMETINE] | 0.312
30 | Cc1cc(CN2CC[C@H](NC(=O)c3ccc(Cl)c(Cl)c3)C2)ccc1OC1CCN(Cc2ccccc2)CC1 | 0.906
31 | COc1ccc2c(=NN=Cc3c(OC)ccc4ccccc34)cc(C)[nH]c2c1 | 0.777
32 | Cc1c[nH]c2cc(/C=C/C(=O)NC3CCC(CCN4CCc5ccc(C#N)cc5CC4)CC3)ccc12 (stereo not given) | 0.801
33 | COc1ccc(-c2nc3c4ccccc4c4ccc(I)cc4c3[nH]2)cc1 | 1.1
34 | COc1cc(CCNC(=N)/C=C/c2ccc(Cl)cc2)ccc1Cl | 0.241
35 | Oc1ccc(Cc2ccccc2)cc1CNC1CCCCC1 | 0.188
36 | O=C(COc1ccc(Cl)c(Cl)c1)NCCCCCN1CCCN(C(=O)Nc2cc(Cl)cc(Cl)c2)CC1 | 1.14
37 | Cc1cc(N(C)C)nc(Nc2ccc(NC(=O)C3CCCCC3)cc2)n1 | 1.11
38 | CCCCN(Cc1cc(Cl)c(OCC)c(OC)c1)c1ccc(C(O)(C(F)(F)F)C(F)(F)F)cc1 | 0.915
39 | Cc1cccn2c(=O)c3cc(C(=O)NC(C)c4ccccc4)c(=N)n(CCc4ccccc4)c3nc12 (stereo not given) | 0.554
40 | c1ccc(CCNc2ncnc3c2[nH]c2ccccc23)cc1 | 0.601
41 | Cc1ccc2nc(-c3ccc(C(=O)NC4CCN(Cc5ccccc5)CC4)s3)[nH]c2c1 | 1.01
42 | O=C(CCc1c[nH]cn1)Nc1cccc(-c2ccc(-c3nc4cc(F)ccc4[nH]3)cc2)c1 | 0.244
43 | Cc1noc(C)c1C(=O)N1CCCC(c2[nH]c3c(C)cccc3c2-c2ccncc2)C1 (stereo not given) | 0.843
44 | CC(=O)Nc1cccc(C(=O)Nc2cccc(-c3ccc(-c4nc5cc(F)ccc5[nH]4)cc3)c2)c1 | 0.764
45 | CCCCCN1CCCC(NS(=O)(=O)c2cccc(C(=O)Nc3cccc(C(F)(F)F)c3)c2)C1 (stereo not given) | 1.07
46 | CN(C)CCOc1ccc2c(c1)OC(C)(C)C=C2c1cccc2ccccc12 | 0.785
47 | CC(C)c1ccc(NC(=O)c2cccc(CN3CCCN(Cc4cccc(C#N)c4)CC3)c2)cc1 | 0.948
48 | CCCN1CCN(CC(O)CNC(=O)Nc2ccc(Br)cc2)CC1 (stereo not given) | 0.063
49 | CCN(CCCN1CCCCC1)c1cc(C)nc(Nc2ccc(C)cc2)n1 | 0.411
50 | Cn1nc(C(=O)N2CCC(c3[nH]ncc3Cc3ccccc3)CC2)c2ccccc2c1=O | 0.304

Row | SMILES | XC50 [µM]
51 | Clc1ccc(CNc2ccnc(NCc3cccnc3N3CCCC3)n2)c(Cl)c1 | 1.17
52 | COc1ccc(CCNc2nc(SCc3ccccc3Cl)nc3ccccc23)cc1OC | 0.943
53 | O=C(Cc1c[nH]cn1)Nc1ccc(-c2ccc(-c3nc4ccccc4[nH]3)s2)cc1 | 1.06
54 | Cc1cccc2nc(-c3ccc(-c4cccc(CN5CCC(N)C5)c4)s3)[nH]c12 (stereo not given) | 0.773
55 | O=C(Nc1ccc(Oc2cccnc2)cc1)C1CCN(Cc2cc(Cl)ccc2O)CC1 | 1.35
56 | Cc1ccc2c(c1)C1(CC(=O)N(CCc3scnc3C)C1=O)C(=O)N2Cc1ccccc1 (stereo not given) | 1.25
57 | Cc1cc(N[C@@H](Cc2ccccc2)C(=O)NCc2cccc(F)c2)nc(NCc2ccccc2C)n1 | 0.981
58 | CCc1ccccc1NC(=O)CN1CCN(c2ncnc3scc(-c4ccc(F)cc4)c23)CC1 | 0.702
59 | COc1ccc(-c2cccc(NC(=O)c3cccc(F)c3)c2)cc1CN1CCCN(C)CC1 | 0.603
60 | CC(C)Oc1ccc(C=CC(=O)Nc2noc3ccccc23)cc1 | 0.288
61 | COc1ccc(-c2cc(NCc3ccc(-n4ccnc4)cc3)nc(Nc3ccccc3)n2)cc1 | 0.966
62 | Cc1ccc(-c2nc(NC(=O)Nc3ccc(C(F)(F)F)cc3)sc2C)cc1Cl | 0.659
63 | CN(C)CCOc1ccc(-c2cc(-c3ccnc(N)n3)c(-c3ccc(Cl)c(O)c3)o2)cc1 | 0.978
64 | O=c1c2ccccc2[nH]c2nc3ccccc3c(Nc3ccccc3)c12 | 0.141
65 | O=C(N1CCN(c2ccnc3cc4c(cc23)N(Cc2ccccc2)CC4)CC1)C(F)(F)F | 0.257
66 | COc1ccc(NC(=O)c2cn(-c3ccc(C(C)(C)C)cc3)nc2C)cc1N1CCN(C)CC1 | 0.949
67 | COCCNCc1cccc(-c2cc3nccc(Nc4ccc(Oc5ccccc5)cc4)c3cc2Cl)c1 | 1.38
68 | O=C(/C=C/c1ccc(Cl)c(Cl)c1)N1CCC(CCCN2CCC(c3c[nH]c4ccc(O)cc34)CC2)CC1 | 0.694
69 | Cc1c(C(=O)N2CCc3cc4nccc(N5CCN6CCC[C@H]6C5)c4cc32)cnn1-c1ccc(C#N)cc1 | 0.994
70 | COc1ccc2ncc(F)c(CCN3CCC(NCc4ccc5c(c4)CCO5)CC3)c2n1 | 0.677
71 | COc1ccc2nccc(N/N=C/c3ccc([N+](=O)[O-])cc3)c2c1 | 0.712
72 | Cc1cc(O)c2c(c1)OC(C)(C)C=C2C1=CCN(Cc2ccccc2)CC1 | 0.791
73 | OC(CNCc1ccccc1Oc1ccccc1)c1cc(Br)cs1 (stereo not given) | 1.11
74 | COc1ccc(-c2ccc([N+](=O)[O-])cc2C(=O)NCC(C)Oc2ccc(C(F)(F)F)cc2)cc1 (stereo not given) | 0.55
75 | O=C(/C=C/c1ccc(Br)cc1)NCCCCCN1CCC(c2c[nH]c3ccccc23)CC1 | 0.724

Row | SMILES | XC50 [µM]
76 | O=C(c1cccc(-c2cccc(-c3nc4ccccc4[nH]3)c2)c1)N1CCCCC1CN1CCC(O)C1 (stereo not given) | 0.728
77 | CNC(=O)NC1CCN(Cc2c(-c3cccs3)nc3ccccc3c2C(=O)N[C@@H](C)C2CCCCC2)CC1 | 0.219
78 | O=C(Nc1cccc(-c2ccc(CN3CCC(O)CC3)cc2)c1)c1cccc(Cl)c1 | 0.764
79 | Cc1c(Cn2nc(Cl)c(N3CCNCC3)cc2=O)cccc1NC(=O)Nc1ccc(-c2ccccc2)cc1 | 1.38
80 | O=C(NC1CCCCC1)N(Cc1cccc(-c2cccc(CNC3CCCC3)c2)c1)C1CCN(Cc2ccccc2)CC1 | 0.736
81 | COc1cc(Cc2c(C)nc3nc(N)nc(N)c3c2C)c(Br)c(OC)c1OC | 0.404
82 | CCCNc1nc(Nc2ccccc2C)nc2ccccc12 | 0.887
83 | NC1CCN(Cc2ccc(-c3ccc(-c4nc5ccccc5[nH]4)s3)cc2)C1 (stereo not given) | 0.743
84 | CCn1c(SCc2ccc(F)cc2)nc2sc3c(c2c1=O)CCN(C)C3 | 0.254
85 | Cc1ccccc1OCCCON1C(=N)N=C(N)NC1(C)C | 0.0032
86 | O=C1NC(c2ccc(N3CCCCCC3)cc2)Nc2ccccc21 (stereo not given) | 0.566
87 | CN1CCC(N2CCC(Oc3cccc(C(=O)NCCCC4CCCC4)c3)CC2)CC1 | 0.843
88 | c1ccc(C(c2cccs2)N2CCN(Cc3ccc(OCCCN4CCCCC4)cc3)CC2)cc1 (stereo not given) | 1.23
89 | CCOc1cc(Cc2cnc(N)nc2N)cc(OCC)c1-n1cccc1 [EPIROPRIM] | 0.761
90 | CN1CCC(NCc2cccc(-c3cccc(S(=O)(=O)NCc4ccccc4)c3)c2)CC1 | 0.749
91 | CC(C)CN1C(=O)c2ccccc2C(C(=O)Nc2cccc(C#N)c2)C1c1cccs1 (stereo not given) | 0.159
92 | Cc1cc(N[C@@H](Cc2ccccc2)C(=O)NCCc2ccccc2)nc(NCCc2ccc(F)cc2)n1 | 0.661
93 | NCc1ccc(CNCc2ccc(-c3ccc(-c4nc5cc(F)ccc5[nH]4)cc3)cc2)cc1 | 0.402
94 | O=C(/C=C/c1cccc(Br)c1)NCCCCCN1CCC(c2c[nH]c3ccccc23)CC1 | 0.634
95 | CCNc1cc(C(=O)N[C@@H](Cc2ccccc2)[C@H](O)CNC2(C(C)C)CCC2)cc(N2CCCCS2(=O)=O)c1 | 0.685
96 | Nc1c2ccccc2nc2cc(C(F)(F)F)ccc12 | 0.842
97 | CCOC(=O)c1cncc(/C=C/c2cc(C)cnc2N)c1 | 0.424
98 | CCCOc1cccc(C(=O)N[C@@H](Cc2ccccc2)[C@H](O)CNCc2ccccc2OC)c1 | 0.883
99 | O=C(NC1CCN(c2ccnc3cc(Cl)ccc23)C1)c1ccc(C(F)(F)F)cc1 (stereo not given) | 0.143
100 | Cc1cccc(Cn2c(C(N)=O)nn(-c3ccc([N+](=O)[O-])cc3C#N)c2=S)c1 | 0.731
